Data published in ChEMBL document CHEMBL1201861, “Genomics of Drug Sensitity in Cancer screening data, Wellcome Trust Sanger Institute”.

Columns and labels:
Experiment in all cases: cells
[1] = system: RPMI-8226; assay type: functional, cell-based, Homo sapiens; conditions: Homo sapiens, RPMI-8226
Description: SANGER: Inhibition of human RPMI-8226 cell growth in a cell viability assay.

[2] = system: LNCaP-Clone-FGC; assay type: functional, cell-based, Homo sapiens; conditions: Homo sapiens, LNCaP-Clone-FGC
Description: SANGER: Inhibition of human LNCaP-Clone-FGC cell growth in a cell viability assay.

[3] = system: HOP-62; assay type: functional, cell-based, Homo sapiens; conditions: Homo sapiens, HOP-62;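 further: cell growth inhibition determined with a viability assay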
Description: SANGER: Inhibition of human HOP-62 cell growth in a cell viability assay.

[4] = system: ES4; assay type: functional, cell-based, Homo sapiens; conditions: Homo sapiens, ES4;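 further: growth inhibition of human ES4 cells, read out by a cell viability assay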
Description: SANGER: Inhibition of human ES4 cell growth in a cell viability assay.

[5] = system: U-87 MG; assay type: functional, cell-based, Homo sapiens, U-87MG ATCC; conditions: Homo sapiens, U-87 MG;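 further: growth inhibition of the cells measured with a viability assay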
Description: SANGER: Inhibition of human U-87-MG cell growth in a cell viability assay.

[6] = system: DSH1; assay type: functional, cell-based; conditions: Homo sapiens;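 further: growth inhibition of human DSH1 cells, measured with a cell viability readout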
Description: SANGER: Inhibition of human DSH1 cell growth in a cell viability assay.

[7] = system: TE-1; assay type: functional, cell-based, Homo sapiens; conditions: Homo sapiens, TE-1;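 further: growth inhibition of the human TE-1 cell line, read out with a cell viability assay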
Description: SANGER: Inhibition of human TE-1 cell growth in a cell viability assay.

[8] = system: TK-10; assay type: functional, cell-based, Homo sapiens; conditions: Homo sapiens, TK-10;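 further: growth inhibition of TK-10 cells, read out in a cell viability assay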
Description: SANGER: Inhibition of human TK10 cell growth in a cell viability assay.

[9] = system: HD-MY-Z; assay type: functional, cell-based, Homo sapiens; conditions: Homo sapiens, HD-MY-Z;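 further: growth inhibition of HD-MY-Z cells, read out with a cell viability assay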
Description: SANGER: Inhibition of human HD-MY-Z cell growth in a cell viability assay.

[10] = system: OCUB-M; assay type: functional, cell-based; conditions: Homo sapiens;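 further: growth inhibition of the cancer cell line, read out through a cell viability assay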
Description: SANGER: Inhibition of human OCUB-M cell growth in a cell viability assay.

[11] = system: no-10; assay type: functional, cell-based, Homo sapiens; conditions: Homo sapiens;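 further: growth inhibition of no-10 cells, read out with a cell viability assay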
Description: SANGER: Inhibition of human no-10 cell growth in a cell viability assay.

[12] = system: GAK; assay type: functional, cell-based, Homo sapiens; conditions: Homo sapiens, GAK;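 further: cell growth inhibition read out by a cell viability assay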
Description: SANGER: Inhibition of human GAK cell growth in a cell viability assay.

[13] = system: GT3TKB; assay type: functional, cell-based, Homo sapiens; conditions: Homo sapiens, GT3TKB;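 further: growth inhibition of the cell line, read out with a cell viability assay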
Description: SANGER: Inhibition of human GT3TKB cell growth in a cell viability assay.

[14] = system: MLMA; assay type: functional, cell-based, Homo sapiens; conditions: Homo sapiens, MLMA;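 further: growth inhibition of MLMA cells (human), determined through a cell viability readout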
Description: SANGER: Inhibition of human MLMA cell growth in a cell viability assay.

[15] = system: HL-60; assay type: functional, cell-based, Homo sapiens; conditions: Homo sapiens, HL-60;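 further: growth inhibition of human HL-60 cells, read out with a cell viability assay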
Description: SANGER: Inhibition of human HL-60 cell growth in a cell viability assay.

[16] = system: ETK-1; assay type: functional, cell-based, Homo sapiens; conditions: Homo sapiens, ETK-1;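 further: growth inhibition of human ETK-1 cells, read out with a cell viability assay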
Description: SANGER: Inhibition of human ETK-1 cell growth in a cell viability assay.

[17] = system: MEG-01; assay type: functional, cell-based, Homo sapiens; conditions: Homo sapiens, MEG-01;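 further: growth inhibition of MEG-01 cells, read out by a cell viability assay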
Description: SANGER: Inhibition of human MEG-01 cell growth in a cell viability assay.

[18] = system: NOMO-1; assay type: functional, cell-based, Homo sapiens; conditions: Homo sapiens, NOMO-1;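 further: growth inhibition of human NOMO-1 cells measured by a cell viability assay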
Description: SANGER: Inhibition of human NOMO-1 cell growth in a cell viability assay.

[19] = system: C2BBe1; assay type: functional, cell-based, Homo sapiens; conditions: Homo sapiens, C2BBe1;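 further: growth inhibition of C2BBe1 cells, read out through a viability assay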
Description: SANGER: Inhibition of human C2BBe1 cell growth in a cell viability assay.

[20] = system: MC116; assay type: functional, cell-based, Homo sapiens; conditions: Homo sapiens, MC116;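 further: growth inhibition of MC116 cells, read out with a cell viability assay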
Description: SANGER: Inhibition of human MC116 cell growth in a cell viability assay.

[21] = system: NB13; assay type: functional, cell-based, Homo sapiens; conditions: Homo sapiens, NB13;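 further: cell viability readout measuring growth inhibition of human NB13 cells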
Description: SANGER: Inhibition of human NB13 cell growth in a cell viability assay.

[22] = system: SJSA-1; assay type: functional, cell-based, Homo sapiens; conditions: Homo sapiens, SJSA-1;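 further: growth inhibition of human SJSA-1 cells, read out through a cell viability measurement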
Description: SANGER: Inhibition of human SJSA-1 cell growth in a cell viability assay.

[23] = system: HT-144; assay type: functional, cell-based, Homo sapiens; conditions: Homo sapiens, HT-144
Description: SANGER: Inhibition of human HT-144 cell growth in a cell viability assay.

[24] = system: ES5; assay type: functional, cell-based, Homo sapiens; conditions: Homo sapiens, ES5;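 further: growth inhibition of human ES5 cells, read out by a cell viability assay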
Description: SANGER: Inhibition of human ES5 cell growth in a cell viability assay.

[25] = system: BB49-HNC; assay type: functional, cell-based, Homo sapiens; conditions: Homo sapiens, BB49-HNC;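 further: cell viability assay read-out, reported as inhibition of BB49-HNC cell growth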
Description: SANGER: Inhibition of human BB49-HNC cell growth in a cell viability assay.

[26] = system: MMAC-SF; assay type: functional, cell-based; conditions: Homo sapiens;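 further: growth inhibition of human MMAC-SF cells, read out with a cell viability assay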
Description: SANGER: Inhibition of human MMAC-SF cell growth in a cell viability assay.

[27] = system: D283 Med; assay type: functional, cell-based, Homo sapiens; conditions: Homo sapiens, D283 Med
Description: SANGER: Inhibition of human D-283MED cell growth in a cell viability assay.

[28] = system: JAR; assay type: functional, cell-based, Homo sapiens; conditions: Homo sapiens, JAR;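 further: growth inhibition of human JAR cells determined with a cell viability assay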
Description: SANGER: Inhibition of human JAR cell growth in a cell viability assay.

[29] = system: Becker; assay type: functional, cell-based, Homo sapiens; conditions: Homo sapiens, Becker;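 further: growth inhibition of Becker cells, read out with a cell viability assay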
Description: SANGER: Inhibition of human Becker cell growth in a cell viability assay.

[30] = system: KP-N-YS; assay type: functional, cell-based, Homo sapiens; conditions: Homo sapiens, KP-N-YS;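 further: cell viability assay measuring inhibition of cell line growth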
Description: SANGER: Inhibition of human KP-N-YS cell growth in a cell viability assay.

[31] = system: LS-411N; assay type: functional, cell-based, Homo sapiens; conditions: Homo sapiens, LS-411N
[32] = system: 8-MG-BA; assay type: functional, cell-based, Homo sapiens; conditions: Homo sapiens, 8-MG-BA;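 further: growth inhibition of 8-MG-BA cells, read out with a cell viability assay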
Description: SANGER: Inhibition of human 8-MG-BA cell growth in a cell viability assay.

[33] = system: BB65-RCC; assay type: functional, cell-based, Homo sapiens; conditions: Homo sapiens, BB65-RCC;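 further: growth inhibition of the cell line, measured with a cell viability assay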
Description: SANGER: Inhibition of human BB65-RCC cell growth in a cell viability assay.

[34] = system: BB30-HNC; assay type: functional, cell-based, Homo sapiens; conditions: Homo sapiens, BB30-HNC;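 further: growth inhibition of the cultured cell line, read out by a cell viability assay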
Description: SANGER: Inhibition of human BB30-HNC cell growth in a cell viability assay.

[35] = system: DU-4475; assay type: functional, cell-based, Homo sapiens; conditions: Homo sapiens, DU-4475
Description: SANGER: Inhibition of human DU-4475 cell growth in a cell viability assay.

[36] = system: SNB-75; assay type: functional, cell-based, Homo sapiens; conditions: Homo sapiens, SNB-75;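 further: cell viability assay measuring growth inhibition of human SNB-75 cells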
Description: SANGER: Inhibition of human SNB75 cell growth in a cell viability assay.

[37] = system: SK-PN-DW; assay type: functional, cell-based, Homo sapiens; conditions: Homo sapiens, SK-PN-DW;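 further: growth inhibition measured with a viability assay on these cells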
Description: SANGER: Inhibition of human SK-PN-DW cell growth in a cell viability assay.

[38] = system: MHH-PREB-1; assay type: functional, cell-based, Homo sapiens; conditions: Homo sapiens, MHH-PREB-1;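 further: cell viability assay measuring inhibition of proliferation of human MHH-PREB-1 cells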
Description: SANGER: Inhibition of human MHH-PREB-1 cell growth in a cell viability assay.

[39] = system: EW-11; assay type: functional, cell-based, Homo sapiens; conditions: Homo sapiens, EW-11;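 further: growth inhibition of human EW-11 cells, measured with a cell viability assay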
Description: SANGER: Inhibition of human EW-11 cell growth in a cell viability assay.

[40] = system: SW 962; assay type: functional, cell-based, Homo sapiens; conditions: Homo sapiens, SW 962;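 further: growth inhibition of human SW962 cells, read out by a cell viability assay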
Description: SANGER: Inhibition of human SW962 cell growth in a cell viability assay.

[41] = system: NCI-N87; assay type: functional, cell-based; conditions: Homo sapiens;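 further: growth inhibition of human NCI-N87 cells, read out with a cell viability assay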
Description: SANGER: Inhibition of human NCI-N87 cell growth in a cell viability assay.

[42] = system: KS-1; assay type: functional, cell-based; conditions: Homo sapiens;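 further: growth inhibition of KS-1 cells, read out with a cell viability assay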
Description: SANGER: Inhibition of human KS-1 cell growth in a cell viability assay.

[43] = system: SCH; assay type: functional, cell-based, Homo sapiens; conditions: Homo sapiens, SCH;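 further: growth inhibition of human SCH cells, read out in a cell viability assay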
Description: SANGER: Inhibition of human SCH cell growth in a cell viability assay.

[44] = system: IST-MEL1; assay type: functional, cell-based, Homo sapiens; conditions: Homo sapiens, IST-MEL1;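 further: growth inhibition of the cell line, read out with a cell viability assay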
Description: SANGER: Inhibition of human IST-MEL1 cell growth in a cell viability assay.

[45] = system: PSN1; assay type: functional, cell-based, Homo sapiens; conditions: Homo sapiens, PSN1;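 further: suppression of growth of human PSN1 cells, read out by a cell viability assay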
Description: SANGER: Inhibition of human PSN1 cell growth in a cell viability assay.

[46] = system: A498; assay type: functional, cell-based, Homo sapiens; conditions: Homo sapiens, A498;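 further: growth inhibition of human A498 cells, read out with a cell viability assay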
Description: SANGER: Inhibition of human A498 cell growth in a cell viability assay.

[47] = system: A3-KAW; assay type: functional, cell-based, Homo sapiens; conditions: Homo sapiens, A3-KAW;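 further: growth inhibition of human A3-KAW cells, read out with a cell viability assay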
Description: SANGER: Inhibition of human A3-KAW cell growth in a cell viability assay.

[48] = system: LB771-HNC; assay type: functional, cell-based; conditions: Homo sapiens;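 further: growth inhibition of LB771-HNC human cells, read out with a cell viability assay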
Description: SANGER: Inhibition of human LB771-HNC cell growth in a cell viability assay.

[49] = system: NCI-H209; assay type: functional, cell-based, Homo sapiens; conditions: Homo sapiens, NCI-H209;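 further: growth inhibition of human NCI-H209 cells, measured by a cell viability assay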
Description: SANGER: Inhibition of human NCI-H209 cell growth in a cell viability assay.

[50] = system: A704; assay type: functional, cell-based; conditions: Homo sapiens;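 further: growth inhibition of human A704 cells, read out with a cell viability assay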
Description: SANGER: Inhibition of human A704 cell growth in a cell viability assay.

[51] = system: D-247MG; assay type: functional, cell-based; conditions: Homo sapiens
Description: SANGER: Inhibition of human D-247MG cell growth in a cell viability assay.

SMILES: CCCCCCCCCCCC1=C(O)C(=O)C=C(O)C1=O [EMBELIN]
- IC50 [1]: 13.7 µM
- IC50 [2]: 21.9 µM
- IC50 [3]: 5.69 µM
- IC50 [4]: 4.52 µM
- IC50 [5]: > 32 µM
- IC50 [6]: > 32 µM
- IC50 [7]: 21.6 µM
- IC50 [8]: > 32 µM
- IC50 [9]: 26.9 µM
- IC50 [10]: 5.32 µM
- IC50 [11]: 13.9 µM
- IC50 [12]: 11.7 µM
- IC50 [13]: 3.62 µM
- IC50 [14]: > 32 µM
- IC50 [15]: 8.85 µM
- IC50 [16]: 9.75 µM
- IC50 [17]: 25.5 µM
- IC50 [18]: 12.3 µM
- IC50 [19]: 13.9 µM
- IC50 [20]: 2.82 µM
- IC50 [21]: 16.7 µM
- IC50 [22]: 4.27 µM
- IC50 [23]: 8.74 µM
- IC50 [24]: > 32 µM
- IC50 [25]: > 32 µM
- IC50 [26]: 26.8 µM
- IC50 [27]: 14.7 µM
- IC50 [28]: > 32 µM
- IC50 [29]: 15.8 µM
- IC50 [30]: > 32 µM
- IC50 [31]: 7.49 µM
- IC50 [32]: 3.53 µM
- IC50 [33]: 11.4 µM
- IC50 [34]: 5.06 µM
- IC50 [35]: 13.2 µM
- IC50 [36]: 17.4 µM
- IC50 [37]: 30.6 µM
- IC50 [38]: 10.9 µM
- IC50 [39]: > 32 µM
- IC50 [40]: 7.77 µM
- IC50 [41]: > 32 µM
- IC50 [42]: 14.5 µM
- IC50 [43]: > 32 µM
- IC50 [44]: 7.9 µM
- IC50 [45]: 5.41 µM
- IC50 [46]: > 32 µM
- IC50 [47]: 9.01 µM
- IC50 [48]: > 32 µM
- IC50 [49]: > 32 µM
- IC50 [50]: 10.9 µM

SMILES: C/C(=C\c1csc(C)n1)[C@@H]1C[C@@H]2O[C@]2(C)CCC[C@H](C)[C@H](O)[C@@H](C)C(=O)C(C)(C)[C@@H](O)CC(=O)O1 [PATUPILONE]
- IC50 [1]: 0.00671 µM
- IC50 [2]: 0.00426 µM
- IC50 [3]: 0.00104 µM
- IC50 [4]: 0.000739 µM
- IC50 [5]: 0.0218 µM
- IC50 [6]: > 0.032 µM
- IC50 [7]: 0.00202 µM
- IC50 [8]: 0.00205 µM
- IC50 [9]: 0.0233 µM
- IC50 [10]: 0.00103 µM
- IC50 [11]: 0.00556 µM
- IC50 [12]: 0.0135 µM
- IC50 [13]: 0.000655 µM
- IC50 [14]: 0.0141 µM
- IC50 [15]: 0.005 µM
- IC50 [16]: 0.000979 µM
- IC50 [17]: 0.00153 µM
- IC50 [18]: 0.00855 µM
- IC50 [19]: > 0.032 µM
- IC50 [20]: 0.00386 µM
- IC50 [21]: 0.000447 µM
- IC50 [22]: 0.00209 µM
- IC50 [23]: 0.00172 µM
- IC50 [24]: > 0.032 µM
- IC50 [25]: > 0.032 µM
- IC50 [26]: 0.023 µM
- IC50 [27]: > 0.032 µM
- IC50 [28]: > 0.032 µM
- IC50 [29]: 0.00286 µM
- IC50 [30]: 0.00393 µM
- IC50 [31]: 0.0236 µM
- IC50 [32]: 0.00478 µM
- IC50 [33]: 0.000631 µM
- IC50 [34]: 0.000201 µM
- IC50 [35]: 0.00238 µM
- IC50 [36]: 0.00301 µM
- IC50 [37]: 0.00106 µM
- IC50 [38]: 0.00751 µM
- IC50 [39]: > 0.032 µM
- IC50 [40]: 0.00104 µM
- IC50 [41]: 0.0303 µM
- IC50 [42]: 0.00176 µM
- IC50 [43]: > 0.032 µM
- IC50 [44]: 0.00406 µM
- IC50 [45]: 0.000173 µM
- IC50 [46]: > 0.032 µM
- IC50 [47]: 0.00606 µM
- IC50 [48]: 0.00846 µM
- IC50 [49]: 0.0209 µM
- IC50 [50]: 0.0146 µM

SMILES: COc1cc(N2CCC(N3CCN(C)CC3)CC2)ccc1Nc1ncc(Cl)c(Nc2ccccc2S(=O)(=O)C(C)C)n1 [TAE-684]
- IC50 [1]: 0.635 µM
- IC50 [2]: > 2 µM
- IC50 [3]: 0.65 µM
- IC50 [4]: 0.491 µM
- IC50 [5]: > 2 µM
- IC50 [6]: > 2 µM
- IC50 [7]: 0.691 µM
- IC50 [8]: 1.05 µM
- IC50 [9]: > 2 µM
- IC50 [10]: 1.36 µM
- IC50 [11]: > 2 µM
- IC50 [13]: > 2 µM
- IC50 [14]: > 2 µM
- IC50 [15]: 0.481 µM
- IC50 [16]: 1.34 µM
- IC50 [17]: > 2 µM
- IC50 [18]: > 2 µM
- IC50 [19]: 1.29 µM
- IC50 [20]: > 2 µM
- IC50 [21]: 1.37 µM
- IC50 [22]: 0.637 µM
- IC50 [23]: 1.63 µM
- IC50 [24]: > 2 µM
- IC50 [25]: > 2 µM
- IC50 [51]: > 2 µM
- IC50 [26]: > 2 µM
- IC50 [27]: 1.22 µM
- IC50 [28]: > 2 µM
- IC50 [29]: > 2 µM
- IC50 [30]: > 2 µM
- IC50 [31]: 0.675 µM
- IC50 [32]: > 2 µM
- IC50 [33]: > 2 µM
- IC50 [34]: 1.13 µM
- IC50 [35]: 1.46 µM
- IC50 [36]: > 2 µM
- IC50 [37]: 1.26 µM
- IC50 [38]: > 2 µM
- IC50 [39]: > 2 µM
- IC50 [40]: 1.56 µM
- IC50 [41]: > 2 µM
- IC50 [42]: 0.193 µM
- IC50 [44]: > 2 µM
- IC50 [45]: 0.196 µM
- IC50 [46]: > 2 µM
- IC50 [47]: > 2 µM
- IC50 [48]: 0.898 µM
- IC50 [49]: > 2 µM
- IC50 [50]: 1.33 µM
